Results: patent US9629864B2 (priority 2013, dated 2017)

Tests used:
Hela cells = conditions: 72 h
[1] = test system: mouse model of acute hemolytic uremic syndrome (type 2 Shiga toxin); parameters: species or system mice; conditions: in vivo, 200 mg/kg
[2] = test system: mouse model of acute hemolytic uremic syndrome (type 2 Shiga toxin); parameters: species or system mice; conditions: in vivo, 200 mg/kg; remark: listed apart in the source
[3] = test system: mouse model of acute hemolytic uremic syndrome (type 2 Shiga toxin); parameters: species or system mice; conditions: in vivo, 200 mg/kg; remark: listed apart in the source
yeast-type fungi = conditions: cited from earlier work

O=C(O)[C@H]1O[C@@H](Oc2cc3oc(-c4ccccc4)cc(=O)c3c(O)c2O)[C@H](O)[C@@H](O)[C@@H]1O [baicalin]
inhibition of cytotoxicity of Hela cells caused by type 2 Shiga toxin (Hela cells): significantly inhibited the cytotoxicity of Hela cells caused by type 2 Shiga toxin, in a dose-dependent manner
content of blood urea nitrogen (BUN) in mouse serum, drug administration group vs normal control group [1]: no significant difference
content of creatinine in mouse serum, drug administration group vs normal control group [1]: no significant difference
survival rates of mice [2]: significantly increased
pathological changes of kidney [3]: only a minor hemorrhage existed in the kidney tissue, and there was no significant difference compared with mice in normal group
minimal inhibitory concentration (MIC) (yeast-type fungi): 70 to 100 mg/L
